US8853271B2, “Method for inhibiting activity and/or expression of matrix metalloproteinase, inhibiting phosphorylation of mitogen-activated protein kinase, and/or promoting expression of collagen using tormentic acid” (China Medical University, priority 2010, dated 2014)

Key:
procollagen-1 = assay: Western blotting of procollagen-1 in UV-exposed fibroblasts; type: cell-based, human; conditions: WS1 fibroblasts exposed to UV for 24 hours, treated for 1 hour before collection
[1] = tested on: matrix metalloproteinase (collagenase, Sigma); assay: Fluorogenic substrate test (collagenase substrate III); type: biochemical
Source text: (§1) In addition to collagen decomposing, matrix metalloproteinase (collagenase) has the effect of gelatin decomposing. The property of the fluorescence generation of decomposed gelatin and decomposed commercial substrates of collagenase (purchased from Calbiochem, la Jolla, […]) was used in this example to evaluate the inhibitory effect of tormentic acid on the matrix metalloproteinase.
A specific amount of a solution of the collagenase substrate III (Mcc-Pro-Leu-Gly-Pro-D-Lys (DNP)—OH, purchased from Calbiochem, la Jolla, […]), a matrix metalloproteinase (collagenase, Sigma) solution, tormentic acid or doxycycline as the positive control were mixed and added to a 96 well plate. Then, an ELISA reader was used to determine the […] (405 nm), respectively. The results are shown in Table 2 and FIG. 3, wherein ΔF is the fluorescence value that the basic fluorescence value at time zero has been deducted.

[2] = tested on: c-Jun N-terminal Kinase (JNK); assay: Western blotting of phosphorylated JNK in UV-exposed fibroblasts; type: cell-based, human; conditions: WS1 fibroblasts exposed to UV for 24 hours, treated for 1 hour before collection
Protocol: (§2) The skin “photo-aging” caused by ultraviolet rays may lead to an increase of matrix metalloproteinase in the dermis via the phosphorylation of the mitogen-activated protein kinase (MAPK), and thus a western blotting assay was also carried out in this experiment to observe the effect of tormentic acid on the phosphorylation of mitogen-activated protein kinase in cells; the result is shown in FIG. 5.
(§3) However, when the cells were treated with tormentic acid for 1 hour before collection, the phosphorylation of JNK, ERK, and p38 can be inhibited.

p38 protein = assay: Western blotting of phosphorylated p38 in UV-exposed fibroblasts; type: cell-based, human; conditions: WS1 fibroblasts exposed to UV for 24 hours, treated for 1 hour before collection
Protocol: as §2, §3

c-Fos = assay: Western blotting of AP-1 subunit c-Fos in the nucleus; type: cell-based, human; conditions: WS1 fibroblasts exposed to UV for 24 hours, treated for 1 hour before collection
Source text: (§4) The UV exposure of cells induces JNK and p38 to activate c-Jun, which then enters into the nucleus. Then, c-Fos translocates into the nucleus under the regulation of ERK and p38. A c-Jun subunit combines with a c-Fos subunit to form an activator protein 1 (AP-1) gene transcription factor, which then participates in gene expression to promote the transcription of message RNA (mRNA) of matrix metalloproteinase-1 (MMP-1) and reduces the gene expression of procollagen-Iα1 (procollagen α1 of Type I collagen). Thus, a western blotting assay was carried out in this experiment to further observe the protein expression of AP-1 in the nucleus, and the result is shown in FIG. 6. After the WS1 human skin dermal fibroblasts were exposed to UV rays for 24 hours, the expression level of c-Jun and c-Fos in the nucleus were increased. However, when the cells were treated with tormentic acid for 1 hour before collection, the expression of c-Jun and c-Fos were inhibited.

[3] = tested on: extracellular signal-regulated protein kinase (ERK); assay: Western blotting of phosphorylated ERK in UV-exposed fibroblasts; type: cell-based, human; conditions: WS1 fibroblasts exposed to UV for 24 hours, treated for 1 hour before collection
Protocol: as §2, §3

[4] = tested on: WS1 human skin dermal fibroblasts; assay: Test of cell survival rate (MTS assay) under UV exposure; type: cell-based; conditions: for absorption value (MTS, 490 nm) / survival rate (%): UV 90 mJ/cm^2, 24 hours; for death of the cells (in words): 90 mJ/cm^2 UV
Protocol: The following experiment was carried out by using WS1 human skin dermal fibroblasts (purchased from Food Industry Research and Development Institute, Taiwan). Under exposure to the ultraviolet ray (UV) with the intensity range from 0 mJ/cm^2 to 120 mJ/cm^2, it will not cause death to WS1 human skin dermal fibroblasts. Thus, this experiment was carried out at the UV intensity of 90 mJ/cm^2. First, tormentic acid of various concentrations (0, 0.1, 1.0, 2.0, or 10 μg/ml) was added to a culture medium (comprising α-minimum essential medium, 10% heat-inactivated Fetal Bovine Serum, 100 U/ml penicillin, and 100 μg/ml Streptomycin) containing the WS1 human skin dermal fibroblasts. After the cells were cultured for 24 hours, an MTS (3-(4,5-di-methylthiazol-2-yl)-5-(3-carboxymethoxy phenyl)-2-(4-sulfophenyl)-2H-tetrazolium, commercially available from Promega, Madison, Wis., America) assay was carried out to observe the cell survival rate, and the results are shown in Table 3. The mechanism of the MTS assay is as follows: the dehydrogenase activity of living cells can reduce MTS to a water soluble product that is red purple in color, which has a maximum absorption at a wavelength of 490 nm, and thus, the cell survival rate can be evaluated by absorption values.

[5] = tested on: matrix metalloproteinase-1; assay: Western blotting of matrix metalloproteinase-1 in UV-exposed fibroblasts; type: cell-based, human; conditions: WS1 fibroblasts exposed to UV for 24 hours, treated for 1 hour before collection
c-Jun = assay: Western blotting of AP-1 subunit c-Jun in the nucleus; type: cell-based, human; conditions: WS1 fibroblasts exposed to UV for 24 hours, treated for 1 hour before collection
Source text: as §4

[6] = tested on: bacterial matrix metalloproteinase; assay: Decomposition test of gelatin (inhibition of matrix metalloproteinase activity); type: biochemical
Protocol: as §1
A 50 μl buffer solution (pH 7.8, contained 50 mM Tris-HCl, 10 mM calcium chloride, and 0.15 M sodium chloride), 30 μl sterile water, and 10 μl bacterial matrix metalloproteinase (0.1 mg/ml, Sigma) were added into an eppendorf tube, and then a 10 μl solution of tormentic acid ([…]) or doxycycline as the positive control was added into the eppendorf tube. The mixture was well mixed, and incubated at room temperature for 60 minutes.
The mixture (30 μl) was drawn and dropped on a circular filter paper covering a gelatin culture medium, and then the filter paper along with the medium was placed into an incubator under 37° C. After incubating for 18 hours, the filter paper was removed. The culture medium was stained with a Coomassie Blue R-250 staining solution (purchased from Amresco company, America), and then was destained with a destaining solution. Because gelatin decomposed by matrix metalloproteinase will not be stained by the Coomassie Blue staining solution, the transparency of the culture medium may reveal the activity of the matrix metalloproteinase. After the culture medium was photographed, the picture was analyzed by an image analysis software (AlphaDigiDoc 1201, purchased from Alpha Innotech Co., America) to calculate the inhibition rate of tormentic acid on the activity of gelatin decomposition of the matrix metalloproteinase.

## C[C@@H]1CC[C@]2(C(=O)O)CC[C@]3(C)C(=CC[C@@H]4[C@@]5(C)C[C@@H](O)[C@H](O)C(C)(C)[C@@H]5CC[C@]43C)[C@@H]2[C@]1(C)O [tormentic acid]
procollagen-1
  expression of procollagen-1: increased
[1]
  generation of fluorescence from collagenase substrate III (in words): can reduce the generation of fluorescence
[1]; 50 μg/ml
  Inhibition rate (collagenase substrate III decomposition): (39%)
  ΔF (fluorescence value, time-zero value deducted): 54.8 ± 8.4
[1]; 100 μg/ml
  Inhibition rate (collagenase substrate III decomposition): (44.7%)
  ΔF (fluorescence value, time-zero value deducted): 49.8 ± 7.2
[1]; 250 μg/ml
  Inhibition rate (collagenase substrate III decomposition): (79.1%)
  ΔF (fluorescence value, time-zero value deducted): 18.8 ± 10.8
[2]
  phosphorylation of JNK: inhibited
p38 protein
  phosphorylation of p38: inhibited
c-Fos
  expression of c-Fos in the nucleus: inhibited
[3]
  phosphorylation of ERK: inhibited
[4]; 0.1 μg/ml
  absorption value (MTS, 490 nm): 1.08 ± 0.95
  survival rate (%): 103.8%
[4]; 1.0 μg/ml
  absorption value (MTS, 490 nm): 1.10 ± 0.97
  survival rate (%): 105.8%
[4]; 2.0 μg/ml
  absorption value (MTS, 490 nm): 1.10 ± 0.98
  survival rate (%): 105.8%
[4]; 10.0 μg/ml
  absorption value (MTS, 490 nm): 0.83 ± 0.70
  survival rate (%): 79.8%
[4]; concentration of 10 μg/ml
  death of the cells (in words): caused the death of the cells
[4]; concentration of lower than 2 μg/ml
  death of the cells (in words): did not cause the death of the cells
[4]; low concentration
  cytotoxicity (in words): no cytotoxicity
[5]
  expression of matrix metalloproteinase-1: inhibited
c-Jun
  expression of c-Jun in the nucleus: inhibited
[6]; 25 μg/ml
  Inhibition rate (%) of gelatin decomposing activity: 3.7%
[6]; 50 μg/ml
  Inhibition rate (%) of gelatin decomposing activity: 24.0%
[6]; 100 μg/ml
  Inhibition rate (%) of gelatin decomposing activity: 62.7%
[6]; 200 μg/ml
  Inhibition rate (%) of gelatin decomposing activity: 75.3%
[6]; 25-200 μg/ml
  activity of gelatin decomposition of the matrix metalloproteinase (in words): significantly inhibited
